Measured values from paper PMC10940605, “Design, synthesis and in vitro anticancer activity of some new lomefloxacin derivatives” (Scientific Reports, 2024).
Read-outs that look alike come from different tables or passages of the source.

Columns and labels:
[1] = tested on: HL-60(TB); assay: NCI-60 SRB screen; type: cell-based; conditions: Homo sapiens, 10^–5 Molar, read-out: Percent growth inhibition
[2] = tested on: RPMI-8226; assay: NCI-60 SRB screen; type: cell-based; conditions: Homo sapiens; RPMI-8226, 10^–5 Molar; read-out: Percent growth inhibition
[3] = tested on: MDA-MB-435; assay: NCI-60 SRB screen; type: cell-based; conditions: Homo sapiens; MDA-MB-435, 10^–5 Molar; read-out: Percent growth inhibition
Method in brief: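 Single-dose screen at 10^−5 M; cells grown in RPMI 1640 with 2 mM L-glutamine and FBS for 24 h, then exposed to compound for 48 h at 37 °C, 5% CO2. TCA-fixed, SRB-stained, absorbance read at […]; percentage growth inhibition calculated against time-zero and control wells.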

[4] = tested on: SK-MEL-2; assay: NCI-60 SRB screen; type: cell-based; conditions: Homo sapiens; SK-MEL-2, 10^–5 Molar; read-out: Percent growth inhibition
Method in brief: (§1)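 Percent growth inhibition at 10^−5 M, 48 h. Sulforhodamine B read-out at […] following cold TCA fixation; Tz plates fixed when compound was added.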

[5] = tested on: SNB-75; assay: NCI-60 SRB screen; type: cell-based; conditions: Homo sapiens; SNB-75, 10^–5 Molar; read-out: Percent growth inhibition
Method in brief: as §1

[6] = tested on: COLO 205; assay: NCI-60 SRB screen; type: cell-based; conditions: Homo sapiens, 48 h; COLO 205, 10^–5 Molar; read-out: Percent growth inhibition
[7] = tested on: HT29; assay: NCI-60 SRB screen; type: cell-based; conditions: Homo sapiens, HT-29; HT29, 10^–5 Molar; read-out: Percent growth inhibition
[8] = tested on: UACC-257; assay: NCI-60 SRB screen; type: cell-based; conditions: Homo sapiens; UACC-257, 10^–5 Molar; read-out: Percent growth inhibition
[9] = tested on: OVCAR-3; assay: NCI-60 SRB screen; type: cell-based; conditions: Homo sapiens; OVCAR-3, 10^–5 Molar; read-out: Percent growth inhibition
[10] = tested on: TK-10; assay: NCI-60 SRB screen; type: cell-based; conditions: Homo sapiens; TK-10, 10^–5 Molar; read-out: Percent growth inhibition
[11] = tested on: DU-145; assay: NCI-60 SRB screen; type: cell-based; conditions: Homo sapiens; DU-145, 10^–5 Molar; read-out: Percent growth inhibition
[12] = tested on: 60 human cancer cell lines; assay: NCI-60 SRB screen, whole panel; type: cell-based; conditions: for activity at 10 µM / LC50 / GI50 / inhibition at 10 µM: Homo sapiens; for activity at 10 µM: 48 h, One Dose Mean Graph, Conc 1.00E-5 Molar, read-out: Mean Growth Percent; for LC50 / Log10 TGI _MID: mean over panel, Units Molar; for LC50: read-out: Log10 LC50 _MID (converted); for GI50: mean over the cell line panel (_MID), Molar, read-out: Mean Log10 GI50 (converted)
[13] = biological target: T1, topoisomerase IIα (Homo sapiens, UniProt P11388); assay: Topoisomerase ELISA kit inhibitory assay; type: biochemical; conditions: four concentrations
T1 construct: purchased MBS2885049
T1 sequence (P11388 whole entry): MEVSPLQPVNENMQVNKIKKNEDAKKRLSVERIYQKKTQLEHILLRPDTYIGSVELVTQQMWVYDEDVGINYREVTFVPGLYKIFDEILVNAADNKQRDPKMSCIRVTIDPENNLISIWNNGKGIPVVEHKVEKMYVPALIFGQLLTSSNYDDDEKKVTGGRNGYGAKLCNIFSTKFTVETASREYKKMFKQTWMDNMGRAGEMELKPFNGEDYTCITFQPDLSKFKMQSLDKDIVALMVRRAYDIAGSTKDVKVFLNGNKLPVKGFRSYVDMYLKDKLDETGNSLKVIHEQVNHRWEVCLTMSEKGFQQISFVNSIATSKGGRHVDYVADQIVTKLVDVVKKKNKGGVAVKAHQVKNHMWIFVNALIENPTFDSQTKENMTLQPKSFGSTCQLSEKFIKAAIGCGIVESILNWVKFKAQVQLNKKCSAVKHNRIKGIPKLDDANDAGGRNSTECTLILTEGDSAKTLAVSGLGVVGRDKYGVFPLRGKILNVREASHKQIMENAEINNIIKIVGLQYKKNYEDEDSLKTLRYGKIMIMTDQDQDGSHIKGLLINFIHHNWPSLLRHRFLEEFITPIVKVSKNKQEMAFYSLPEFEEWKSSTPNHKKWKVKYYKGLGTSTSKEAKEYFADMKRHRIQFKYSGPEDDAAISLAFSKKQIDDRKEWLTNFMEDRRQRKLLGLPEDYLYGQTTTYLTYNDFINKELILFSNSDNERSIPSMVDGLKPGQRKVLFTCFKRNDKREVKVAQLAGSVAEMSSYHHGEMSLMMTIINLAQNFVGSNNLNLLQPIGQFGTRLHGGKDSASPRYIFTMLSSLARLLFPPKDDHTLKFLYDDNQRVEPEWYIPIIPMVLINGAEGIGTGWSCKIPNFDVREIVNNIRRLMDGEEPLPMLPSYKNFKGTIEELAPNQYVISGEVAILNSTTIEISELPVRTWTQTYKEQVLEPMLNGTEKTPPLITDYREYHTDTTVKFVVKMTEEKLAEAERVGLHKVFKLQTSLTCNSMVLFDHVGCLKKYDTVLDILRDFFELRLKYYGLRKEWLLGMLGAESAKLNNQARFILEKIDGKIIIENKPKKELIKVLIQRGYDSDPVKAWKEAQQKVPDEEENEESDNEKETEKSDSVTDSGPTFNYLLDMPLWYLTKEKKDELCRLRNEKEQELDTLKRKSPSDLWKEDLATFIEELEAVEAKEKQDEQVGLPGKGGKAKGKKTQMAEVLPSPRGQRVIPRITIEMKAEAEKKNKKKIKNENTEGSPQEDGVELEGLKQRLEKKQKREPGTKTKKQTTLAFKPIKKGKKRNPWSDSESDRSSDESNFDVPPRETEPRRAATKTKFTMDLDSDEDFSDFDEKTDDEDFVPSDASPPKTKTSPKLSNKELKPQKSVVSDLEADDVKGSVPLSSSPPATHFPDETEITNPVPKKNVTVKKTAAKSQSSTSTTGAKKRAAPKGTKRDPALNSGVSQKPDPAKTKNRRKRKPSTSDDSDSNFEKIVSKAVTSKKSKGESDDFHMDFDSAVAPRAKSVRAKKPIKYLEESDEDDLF
Method: Four concentrations were used and IC50 was calculated.
Compound 3a,b,c,e were evaluated for topoisomerase IIα inhibitory activity utilizing the human DNA topoisomerase ELISA kit (MBS2885049) and following the provided procedure: • Standards and the tested compound were dissolved in sample diluent and tenfold serial dilution was achieved. • Biotin-conjugated antibody and avidin conjugated Horseradish Peroxidase (HRP-avidin) were diluted to tenfolds. • 100 µL of each concentration of standard or test compounds were added to each well and incubated at 37 °C for 1 h. • Removal of the liquid in each well was done. • To each well 100 µL of Biotin-conjugated antibody solution was added followed by incubation for 1 h at 37 °C. • The microtiter plate was allowed to aspirate and washed 3 times. • 100 µL of avidin conjugated Horseradish Peroxidase (HRP-avidin) solution was added to each well and incubatation for 1 h at 37 °C was achieved. • The plate was aspirated and washed 5 times. • Addition of 90 µL of 3,3′,5,5′-tetramethylbenzidine (TMB) substrate to each well followed by plate incubated for 30 min at 37 °C and protection from light was done. • 50 µL stop solution was added.

[14] = tested on: SK-OV-3; assay: NCI-60 SRB screen; type: cell-based; conditions: Homo sapiens; SK-OV-3, 10^–5 Molar; read-out: Percent growth inhibition
[15] = single dose 10^–5 M, 60 cell lines, read-out: mean percent growth inhibition

SMILES | inhibition at 10 µM [1] [%] | inhibition at 10 µM [2] [%] | inhibition at 10 µM [3] [%] | inhibition at 10 µM [4] [%] | inhibition at 10 µM [5] [%] | inhibition at 10 µM [6] [%] | inhibition at 10 µM [7] [%] | inhibition at 10 µM [8] [%] | inhibition at 10 µM [9] [%] | inhibition at 10 µM [10] [%] | inhibition at 10 µM [11] [%] | activity at 10 µM [12] [%] | LC50 [12] [µM] | GI50 [12] [µM] | inhibition at 10 µM [12, 15] [%] | Log10 TGI _MID [12] | IC50 [13] [µM] | inhibition at 10 µM [14] [%] | melting point [°C] | inhibition at 10 µM ([12]; prostate and renal cancer cell lines, 10^−5 M, read-out: percent inhibition) [%]
CCn1cc(C(=O)NN=Cc2ccccc2)c(=O)c2cc(F)c(N3CCNC(C)C3)c(F)c21 (stereo not shown) [Compound 3a, N'-Benzylidene-1-ethyl-6,8-difluoro-7-(3-methylpiperazin-1-yl)-4-oxo-1,4-dihydroquinoline-3-carbohydrazide] | 81.9 | 142 | 188 | 6.57 | 7.18 | 174 | 192 | 60.4 | 175 | 17.3 | 188 | -2.19 | 5.89 | 1.7 | > 47 | -5.49 | 1.74 |  |  | 
CCn1cc(C(=O)NN=Cc2cccc(F)c2)c(=O)c2cc(F)c(N3CCNC(C)C3)c(F)c21 (stereo not shown) [Compound 3b, 1-Ethyl-6,8-difluoro-N′-(3-fluorobenzylidene)-7-(3-methylpiperazin-1-yl)-4-oxo-1,4-dihydroquinoline-3-carbohydrazide] | 34.5 | 142 | 175 |  | 9.9 | 82.5 | 187 | 11 | 183 |  | 188 | 11.2 | 6.61 | 1.7 | > 47 | -5.47 | 2.41 |  |  | 
CCn1cc(C(=O)NN=Cc2ccc(Br)cc2)c(=O)c2cc(F)c(N3CCNC(C)C3)c(F)c21 (stereo not shown) [Compound 3c, N'-(4-Bromobenzylidene)-1-ethyl-6,8-difluoro-7-(3-methylpiperazin-1-yl)-4-oxo-1,4-dihydroquinoline-3-carbohydrazide] | 51.3 | 115 | 83.3 | 2.32 | 14.4 | 67.9 | 132 |  | 47.1 | 0.41 | 68.6 | 51.9 | 7.24 | 1.74 | > 47 | -5.46 | 1.68 |  |  | 
CCn1cc(C(=O)NN=Cc2cccnc2)c(=O)c2cc(F)c(N3CCNC(C)C3)c(F)c21 (stereo not shown) [Compound 3d, 1-Ethyl-6,8-difluoro-7-(3-methylpiperazin-1-yl)-4-oxo-N'-(pyridin-3-ylmethylene)-1,4-dihydroquinoline-3-carbohydrazide] | 30.5 | 13.4 | 49 | 44.1 | 41.1 | 46.8 | 56.3 | 1.56 | 59.8 | 29 | 57.5 | 53.2 |  |  |  |  |  | 16.2 | 241 to 243 | 
CCn1cc(C(=O)NN=Cc2cccs2)c(=O)c2cc(F)c(N3CCNC(C)C3)c(F)c21 (stereo not shown) [Compound 3e, 1-Ethyl-6,8-difluoro-7-(3-methylpiperazin-1-yl)-4-oxo-N'-(thiophen-2-ylmethylene)-1,4-dihydroquinoline-3-carbohydrazide] |  | 137 | 7.77 |  | 11.5 | 142 | 177 |  | 31.3 | 16.1 | 51.7 | 52.6 | 7.24 | 1.82 | > 47 | -5.44 | 0.98 | 9.74 |  | 
CCn1cc(C(=O)O)c(=O)c2cc(F)c(N3CCN(CC(=O)Nc4ccccc4)C(C)C3)c(F)c21 (stereo not shown) [Compound 5a, 1-Ethyl-6,8-difluoro-7-(3-methyl-4-(2-oxo-2-(phenylamino)ethyl)piperazin-1-yl)-4-oxo-1,4-dihydroquinoline-3-carboxylic acid] |  |  | 2.9 |  | 13.9 |  |  |  |  |  |  | 97.2 |  |  |  |  |  | 9.27 | 248 to 250 | 
CCn1cc(C(=O)O)c(=O)c2cc(F)c(N3CCN(CC(=O)Nc4ccc(Cl)cc4)C(C)C3)c(F)c21 (stereo not shown) [Compound 5b, 7-(4-(2-((4-Chlorophenyl)amino)-2-oxoethyl)-3-methylpiperazin-1-yl)-1-ethyl-6,8-difluoro-4-oxo-1,4-dihydroquinoline-3-carboxylic acid] |  |  | 5.85 |  | 17.7 |  |  |  |  |  |  | 94.6 |  |  |  |  |  | 9.6 | 218 to 220 | 
CCn1cc(C(=O)O)c(=O)c2cc(F)c(N3CCN(C(=O)c4ccccc4)C(C)C3)c(F)c21 (stereo not shown) [Compound 7a, 7-(4-Benzoyl-3-methylpiperazin-1-yl)-1-ethyl-6,8-difluoro-4-oxo-1,4-dihydroquinoline-3-carboxylic acid] |  |  | 4.07 | 0.16 | 21.7 |  |  |  | 3.69 | 13 |  | 93.5 |  |  |  |  |  |  | 290 to 292 | 
CCn1cc(C(=O)O)c(=O)c2cc(F)c(N3CCN(C(=O)c4ccc(Br)cc4)C(C)C3)c(F)c21 (stereo not shown) [Compound 7b, 7-(4-(4-Bromobenzoyl)-3-methylpiperazin-1-yl)-1-ethyl-6,8-difluoro-4-oxo-1,4-dihydroquinoline-3-carboxylic acid] |  |  | 3.15 |  | 2.37 |  |  |  |  |  |  | 98.8 |  |  |  |  |  | 1.83 | 271 to 273 | 
CCn1cc(C(=O)O)c(=O)c2cc(F)c(N3CCN(C(=O)c4ccc(Cl)cc4)C(C)C3)c(F)c21 (stereo not shown) [Compound 7c, 7-(4-(4-Chlorobenzoyl)-3-methylpiperazin-1-yl)-1-ethyl-6,8-difluoro-4-oxo-1,4-dihydroquinoline-3-carboxylic acid] |  |  | 6.54 |  | 9.12 |  |  |  |  |  |  | 97.7 |  |  |  |  |  | 2.14 | 282 to 284 | 
CCn1cc(C(=O)O)c(=O)c2cc(F)c(N3CCN(C(=O)c4ccc([N+](=O)[O-])cc4)C(C)C3)c(F)c21 (stereo not shown) [Compound 7d, 1-Ethyl-6,8-difluoro-7-(3-methyl-4-(4-nitrobenzoyl)piperazin-1-yl)-4-oxo-1,4-dihydroquinoline-3-carboxylic acid] | 24.7 |  |  |  | 13.9 |  |  |  |  |  |  | 97.3 |  |  |  |  |  |  | 215 to 217 | 12 to 27.2
